Laboratory results as given in US20100286105A1, “METHODS OF TREATING HYPERANDROGENISM AND CONDITIONS ASSOCIATED THEREWITH BY ADMINISTERING A FATTY ACID ESTER OF AN ESTROGEN OR AN ESTROGEN DERIVATIVE” (priority 2006, published 2010).

Key:
Type in all cases: in vivo, human
humans [1] = assay: Part 1: single oral dose safety and tolerability study of oleoyl-estrone in humans; settings: one-time single oral dose
Protocol: (§1) A two-part study was conducted to evaluate the safety, tolerability, and pharmacokinetic (PK) profiles of single and multiple doses of oleoyl-estrone in humans.
For the first part of the study, thirty-six subjects where divided into groups of six. Each group was dosed with a single dose of 1, 3, 10, 30, 100, or 150 mg of oleoyl-estrone. Each individual in the group of 6 was randomized to oleoyl-estrone or placebo in a ratio of 2:1 where for every two individuals given oleoyl-estrone one is given a placebo.
(§2) Subjects under went a physical examination to establish height, weight, BMI and baseline signs and symptoms. Electrocardiograms and vital signs were taken. Blood for evaluation of hematology, coagulation and clinical chemistry and urine for urinalysis were obtained for each subject. Samples were also taken for hormone analysis, including estrone, estradiol and testosterone.

humans [2] = assay: Part 2: seven-day daily oral dose safety and tolerability study in humans
Protocol: as §1
(§3) For the second part of the study, […] subjects were divided into […]. Each group was dosed with a single daily dose of 10, 30, 100, or 150 mg oleoyl-estrone for a seven day period. Each individual in the group of 4 was randomized to oleoyl-estrone or placebo.
as §2, with “testosterone. Food-intake and motivation-to-eat using visual analogue scale questionnaires were analyzed.” for “testosterone.”
(§4) Males and post-menopausal females were recruited in both parts of the study. The trial protocol provided that patients should maintain a normal diet and level of activity, but required that patients abstain from consuming alcohol. At baseline, in the placebo group me mean patient weight was 100.5±4.9 kg and BMI 34.4±3.5 and in the oleoyl-estrone group the weight was 100.5±17.8 kg and the average BMI was 34±4.2. The results discussed below are from the second part of the study.

humans [3] = assay: Part 2: hematology and clinical chemistry (white blood cells, lipids, glucose)
Protocol: as §3
as §2, with “testosterone. Food-intake and motivation-to-eat using visual analogue scale questionnaires were analyzed.” for “testosterone.”
as §4

humans [4] = assay: Part 2: hormone levels (estrone, estradiol, testosterone, LH, leptin, CRP); settings: 7 days daily oral dosing
Protocol: as §3
as §2, with “testosterone. Food-intake and motivation-to-eat using visual analogue scale questionnaires were analyzed.” for “testosterone.”
as §4

[5] = Part 2: pharmacokinetics, plasma concentration of oleoyl-estrone; settings: for Cmax: 100 mg, 100 mg group (highest)
Protocol: as §3
as §2, with “testosterone. Food-intake and motivation-to-eat using visual analogue scale questionnaires were analyzed.” for “testosterone.”
as §4

humans [6] = assay: Part 2: body weight and food consumption (visual analogue scale questionnaires)
Protocol: as §3
as §2, with “testosterone. Food-intake and motivation-to-eat using visual analogue scale questionnaires were analyzed.” for “testosterone.”
as §4

[7] = oleoyl-estrone treated group, 7 days daily oral dosing

## CCCCCCCC/C=C\CCCCCCCC(=O)Oc1ccc2c(c1)CC[C@@H]1[C@@H]2CC[C@]2(C)C(=O)CC[C@@H]12 [oleoyl-estrone, [3(Z)]-3-[(1-oxo-9-octadecenyl)oxy]-estra-1,3,5(10)-trien-17-one]
Humans [1]; 1 to 150 mg
  safety and tolerability: safe, well tolerated at oral doses up to 150 mg
Humans [1]; up to 150 mg
  serious adverse events: no serious adverse events were noted
Humans [2]; 7 days daily oral dosing
  changes in physical examinations, vital signs, ECGs, coagulation or liver function tests: no clinically significant changes
Humans [2]; oleoyl-estrone study volunteers, similar episode 6 months prior to dosing
  post-menopausal bleeding: one had post-menopausal bleeding
Humans [2]; [7]
  adverse effect: back pain (n affected/n treated): 4/17
  adverse effect: diarrhea (n affected/n treated): 3/17
  adverse effect: headache (n affected/n treated): 3/17
Humans [2]; single daily oral dose 10-150 mg for seven days, humans
  safety and tolerability: safe, well tolerated at oral doses up to 150 mg
Humans [2]; single daily oral dose up to 150 mg for seven days, humans
  serious adverse events: no serious adverse events were noted
Humans [3]; 7 days daily oral dosing
  mean HDL cholesterol: increased
  mean LDL cholesterol: decreased
Humans [3]; 7 days daily oral dosing, even lower doses
  HDL:LDL cholesterol ratio: increase in the HDL:LDL cholesterol ratio even at the lower doses
Humans [3]; 7 days daily oral dosing, up to Day 15
  mean glucose concentration: fell in a reversible and dose dependent manner and was still low at Day 15
Humans [3]; Day 7, 100-150 mg
  total mean cholesterol: decrease at Day 7 with 100-150 mg
Humans [3]; Day 7 and Day 15
  white blood cell count: increase in white blood cell count was seen in Day 7 but returned to baseline by Day 15
Humans [3]; all doses, all days
  total mean TAGs: dose-dependent increase at all doses and on all days
Humans [4]
  effects on LH: less clear-cut
  mean estradiol levels: elevated
  mean estrone levels: elevated
  mean testosterone levels: suppressed in a reversible and dose dependent manner
Humans [4]; to Day 15
  CRP: increased in a dose-dependent manner, returning to baseline by Day 15
  leptin: increased in a dose-dependent manner, returning to baseline by Day 15
[5]; 10-150 mg daily oral, assay of limited sensitivity
  plasma concentration of oleoyl-estrone versus administered dose level: did not increase with the administered dose level
[5]; Day 7 relative to Day 1, daily oral dosing for 7 consecutive days
  accumulation in plasma: no clear accumulation in plasma
[5]; both sexes, human, plasma, oral, Day 1
  Cmax: 2.4 ng/mL
[5]; both sexes, human, plasma, oral, Day 7
  Cmax: 3.2 ng/mL
[5]; both sexes, human, plasma, oral, Day 1, across dose groups, read-out: oleoyl-estrone plasma levels
  concentration at 1 day: 0.3 to 2.4 ng/mL
[5]; both sexes, human, plasma, oral, Day 7, across dose groups, read-out: oleoyl-estrone plasma levels
  concentration at 7 day: 0.3 to 3 ng/mL
[5]; males and post-menopausal females
  sex differences in plasma concentration-time profiles: no clear differences between the sexes
Humans [6]; 10-150 mg daily for 7 days
  dose dependence of VAS scores and loss of weight: more or less dose-dependent, with maximal effects in the 30 mg and 100 mg groups
Humans [6]; 7 days daily oral dosing
  feelings of hunger, satiety and prospective food consumption (VAS): consistently demonstrated reductions
Humans [6]; Day 28
  weight loss compared to placebo: greater and maintained
